Experimental data from US10004828B2, “Self-assembled Fmoc-ff hydrogels” (Romat at Tel-Aviv University Ltd., priority 2005, dated 2018).
Where two headings read alike, the source gives them in different places. Where a SMILES comes first, the peptide text is derived from it. The star is where a group is joined. Fmoc = O=C(OCC1c2ccccc2-c2ccccc21)*

Legend:
in vitro = settings: CHO cells seeded on the peptide hydrogel
Procedure: (§1) For cell growth in vitro experiments Chinese Hamster Ovary (CHO) cells were grown in Dulbecco's Modified Eagle Medium (DMEM) supplemented with 10% Fetal Calf Serum, 100 U/ml penicillin, 100 U/ml streptomycin and 2 mmol/liter L-glutamine (all from Beit Haemek, Israel). Cells were maintained at 37° C. in a humidified atmosphere containing 5% CO2. Sub-confluent cells were harvested by trypsinization, counted and diluted in the cells media to 1×10^5 cells/ml. The gel was washed three times with 0.5 ml water for 30 minutes at a time and was then left overnight in 0.5 ml DMEM. The DMEM was thereafter removed and 500 μl of CHO cells (5×10^4 cells) were added over the hydrogel. After a 24 hour incubation period at 37° C. the viability of the cells was determined using a MTT (3-(4,5-dimethylthiazolyl-2)-2,5-diphenyltetrazolium bromide) assay [Nowak et al., Nature 417, 424 (2002)].
(§2) In order to exploit whether the peptide-based hydrogel described herein can serve as a scaffold for tissue engineering applications, its biocompatibility was examined using cellular in vitro experiments. Chinese Hamster Ovary (CHO) cells were suspended above the hydrogel after its formation in a […]. After a one-day incubation period the cells were analyzed for viability.

[1] = test system: Chinese Hamster Ovary (CHO) cells; test: in vitro
Procedure: as §1, §2

[2] = HFIP stock, 5 mg/ml
Procedure: Determination of water percentage in the gel was done by washing a freshly formed hydrogel with water five times, each time for 15 minutes, followed by weighing the gel, lyophilizing it and weighing the remaining peptide aggregate.

[3] = for G' (storage modulus): at 1 Hz
Procedure: Rheological measurements were performed on AR 2000 controlled stress rheometer (TA Instruments Ltd, Great Britain) operated in cone-plate mode (cone angles 1 and 4 with diameters of 60 and 40 mm, respectively). Small-amplitude oscillatory shear experiments (0.1-10 Hz) were performed within the linear viscoelastic limit. Frequency scans were performed at the lowest stress possible to prevent damage to the sample. The linearity of response was monitored continuously to ascertain linear viscoelasticity.
To study the biomechanical characteristics of the novel hydrogel, rheology measurements were performed.

[4] = cited from earlier work
[5] = CHO cells on hydrogel from HFIP stock, one-day incubation

Compound	viability at 24 h (in vitro)	cell morphology [1, 5]	rate of proliferation [1, 5]	cell growth on hydrogel compared with poly lysine ([1]; CHO cells, hydrogel from DMSO stock, final DMSO concentration 1%)	hydrogel water content [2]	storage modulus G' excess over loss modulus G'' ([3]; HFIP stock, final concentration 5 mg/ml (FIG. 3a))	G' (storage modulus) ([3]; peptide concentration 5 mg/ml, solvent not stated)	G' (storage modulus) ([3]; peptide final concentration 1 mg/ml, stock solution solvent DMSO)	G' (storage modulus) ([3]; peptide final concentration 2 mg/ml, acetone stock solution)	G' (storage modulus) ([3]; peptide final concentration 5 mg/ml, stock solution solvent HFIP)	G' (storage modulus) ([3]; peptide final concentration 5 mg/ml, stock solution solvent HFIP, listed as Fmoc-diphenylalanine)	G' (storage modulus) ([3]; peptide final concentration 5 mg/ml, stock solution solvent acetone)	G' (storage modulus) ([3]; peptide final concentration 10 mg/ml, acetone stock solution (FIG. 3c))	G' relative to that reported for other self-assembled peptide hydrogels ([3]; versus hydrogels formed without chemical cross linking)	G' (storage modulus) ([4]; 5 mg/ml, Tris HCl buffer, at 1 Hz, reported value)	G' (storage modulus) ([4]; 5 mg/ml, Tris HCl buffer, at 1 Hz, reported value, listed as PuraMatrix gel)	G' (storage modulus) ([4]; at 1 Hz frequency, concentration not given)
O=C(N[C@@H](Cc1ccccc1)C(=O)N[C@@H](Cc1ccccc1)C(=O)O)OCC1c2ccccc2-c2ccccc21 [Fmoc-Phe-Phe, Fmoc-diphenylalanine] (Fmoc-Phe-Phe-OH)	> 80%	normal cell morphology	normal rate of proliferation	effective matrix for cell growth	greater than 99%	about one order of magnitude	about 2×10^4 Pa	1,000 Pa	about 2×10^3 Pa	10,000 Pa	about 10^4 Pa	10,000 Pa	about 2×10^4 Pa	200 fold	–	–	–
[COCH3]-RADARADARADARADA-[CONH2] [RADA16 (Puramatrix)]	–	–	–	–	–	–	–	–	–	–	–	–	–	–	50 Pa	about 50 Pa	about 50 Pa
